According to ChEMBL document CHEMBL1201862, “PubChem BioAssay data set” (2004):
Where a name gives a salt, the structure may show the parent alone. Blank lines part the entries; values can stand above or below the molecule they belong to. Activity calls are given as the source filed them.

What was measured:
[1] = target: Peroxisome proliferator-activated receptor gamma/Nuclear receptor coactivator 1 (Homo sapiens, UniProt P37231); experiment: (§1) TR-FRET dose response biochemical High Throughput Screening assay for agonists of the steroid receptor coactivator 1 (SRC-1) recruitment by the peroxisome proliferator-activated receptor gamma (PPAR gamma): non-selective agonists. [Related pubchem assays (depositor defined):AID1300, AID1808, AID504735, AID631]; format: protein assay
Sequence of Peroxisome proliferator-activated receptor gamma/Nuclear receptor coactivator 1 (P37231 whole entry): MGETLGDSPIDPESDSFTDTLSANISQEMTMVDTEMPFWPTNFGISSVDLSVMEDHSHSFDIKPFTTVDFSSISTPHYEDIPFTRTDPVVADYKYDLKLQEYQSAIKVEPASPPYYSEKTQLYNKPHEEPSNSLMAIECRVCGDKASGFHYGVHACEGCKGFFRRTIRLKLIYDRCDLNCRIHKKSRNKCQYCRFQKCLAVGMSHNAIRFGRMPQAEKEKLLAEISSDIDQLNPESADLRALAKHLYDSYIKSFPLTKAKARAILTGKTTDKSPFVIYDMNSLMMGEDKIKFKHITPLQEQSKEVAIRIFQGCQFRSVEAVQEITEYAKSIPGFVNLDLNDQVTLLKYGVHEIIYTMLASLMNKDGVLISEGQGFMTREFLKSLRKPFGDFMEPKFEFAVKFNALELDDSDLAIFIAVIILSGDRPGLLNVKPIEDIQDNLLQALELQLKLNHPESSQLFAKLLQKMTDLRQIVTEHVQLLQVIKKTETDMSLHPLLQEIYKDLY
Sequence of Peroxisome proliferator-activated receptor gamma/Nuclear receptor coactivator 1 (Q15788 whole entry, further chain): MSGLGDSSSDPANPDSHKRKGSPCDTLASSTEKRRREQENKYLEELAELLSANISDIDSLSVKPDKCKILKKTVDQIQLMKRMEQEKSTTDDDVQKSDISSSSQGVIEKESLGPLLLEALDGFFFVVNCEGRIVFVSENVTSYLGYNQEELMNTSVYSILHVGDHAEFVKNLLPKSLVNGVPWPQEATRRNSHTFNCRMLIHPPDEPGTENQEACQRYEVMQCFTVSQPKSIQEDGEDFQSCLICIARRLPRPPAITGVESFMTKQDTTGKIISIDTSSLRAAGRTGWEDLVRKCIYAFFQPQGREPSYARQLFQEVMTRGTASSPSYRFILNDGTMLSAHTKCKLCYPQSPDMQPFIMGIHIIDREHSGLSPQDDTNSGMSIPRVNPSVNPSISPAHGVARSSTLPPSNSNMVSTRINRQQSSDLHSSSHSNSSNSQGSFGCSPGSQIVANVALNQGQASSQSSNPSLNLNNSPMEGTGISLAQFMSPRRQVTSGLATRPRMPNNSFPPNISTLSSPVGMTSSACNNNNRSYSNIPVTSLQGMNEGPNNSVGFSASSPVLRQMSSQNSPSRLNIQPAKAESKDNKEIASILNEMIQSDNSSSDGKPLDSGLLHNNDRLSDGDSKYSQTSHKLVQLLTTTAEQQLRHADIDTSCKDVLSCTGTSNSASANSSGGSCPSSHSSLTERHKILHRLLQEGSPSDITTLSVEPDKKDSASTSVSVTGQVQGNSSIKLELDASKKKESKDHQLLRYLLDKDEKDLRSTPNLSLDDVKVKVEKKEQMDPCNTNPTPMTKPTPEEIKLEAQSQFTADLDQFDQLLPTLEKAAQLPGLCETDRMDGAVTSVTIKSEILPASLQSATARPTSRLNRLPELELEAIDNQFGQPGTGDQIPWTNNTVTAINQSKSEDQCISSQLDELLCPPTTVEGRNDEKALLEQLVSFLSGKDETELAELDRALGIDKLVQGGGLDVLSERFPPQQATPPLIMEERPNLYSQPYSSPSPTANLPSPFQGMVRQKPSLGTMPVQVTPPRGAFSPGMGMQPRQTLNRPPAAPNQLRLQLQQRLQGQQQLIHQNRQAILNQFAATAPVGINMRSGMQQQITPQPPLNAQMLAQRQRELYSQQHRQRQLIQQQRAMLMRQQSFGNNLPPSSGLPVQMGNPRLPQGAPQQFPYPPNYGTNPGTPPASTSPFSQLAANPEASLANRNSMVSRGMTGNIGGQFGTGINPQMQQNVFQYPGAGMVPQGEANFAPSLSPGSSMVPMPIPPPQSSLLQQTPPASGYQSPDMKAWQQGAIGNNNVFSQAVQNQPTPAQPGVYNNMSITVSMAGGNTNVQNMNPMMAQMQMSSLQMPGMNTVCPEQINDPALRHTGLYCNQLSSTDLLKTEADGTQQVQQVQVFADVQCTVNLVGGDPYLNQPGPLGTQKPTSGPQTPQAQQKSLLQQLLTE

[2] = target: Peroxisome proliferator-activated receptor gamma/Nuclear receptor coactivator 3 (Homo sapiens, UniProt P37231); experiment: as §1, with “3 (SRC-3)” for “1 (SRC-1)”, “assays: 1301 (Confirmation screen.), 1048 (Primary screen.)]” for “assays (depositor defined):AID1300, AID1808, AID504735, AID631]”; format: functional
[3] = target: Peroxisome proliferator-activated receptor gamma/Nuclear receptor coactivator 2 (Homo sapiens, UniProt P37231); experiment: TR-FRET dose response biochemical High Throughput Screening assay for agonists of the steroid receptor coactivator 2 (SRC-2) recruitment by the peroxisome proliferator-activated receptor gamma (PPAR gamma): non-selective agonists. [Related pubchem assays: 1297, 1032 ]; format: functional
Sequence of Peroxisome proliferator-activated receptor gamma/Nuclear receptor coactivator 2 (P37231 whole entry): as the sequence (P37231 whole entry) above
Sequence of Peroxisome proliferator-activated receptor gamma/Nuclear receptor coactivator 2 (Q15596 whole entry, further chain): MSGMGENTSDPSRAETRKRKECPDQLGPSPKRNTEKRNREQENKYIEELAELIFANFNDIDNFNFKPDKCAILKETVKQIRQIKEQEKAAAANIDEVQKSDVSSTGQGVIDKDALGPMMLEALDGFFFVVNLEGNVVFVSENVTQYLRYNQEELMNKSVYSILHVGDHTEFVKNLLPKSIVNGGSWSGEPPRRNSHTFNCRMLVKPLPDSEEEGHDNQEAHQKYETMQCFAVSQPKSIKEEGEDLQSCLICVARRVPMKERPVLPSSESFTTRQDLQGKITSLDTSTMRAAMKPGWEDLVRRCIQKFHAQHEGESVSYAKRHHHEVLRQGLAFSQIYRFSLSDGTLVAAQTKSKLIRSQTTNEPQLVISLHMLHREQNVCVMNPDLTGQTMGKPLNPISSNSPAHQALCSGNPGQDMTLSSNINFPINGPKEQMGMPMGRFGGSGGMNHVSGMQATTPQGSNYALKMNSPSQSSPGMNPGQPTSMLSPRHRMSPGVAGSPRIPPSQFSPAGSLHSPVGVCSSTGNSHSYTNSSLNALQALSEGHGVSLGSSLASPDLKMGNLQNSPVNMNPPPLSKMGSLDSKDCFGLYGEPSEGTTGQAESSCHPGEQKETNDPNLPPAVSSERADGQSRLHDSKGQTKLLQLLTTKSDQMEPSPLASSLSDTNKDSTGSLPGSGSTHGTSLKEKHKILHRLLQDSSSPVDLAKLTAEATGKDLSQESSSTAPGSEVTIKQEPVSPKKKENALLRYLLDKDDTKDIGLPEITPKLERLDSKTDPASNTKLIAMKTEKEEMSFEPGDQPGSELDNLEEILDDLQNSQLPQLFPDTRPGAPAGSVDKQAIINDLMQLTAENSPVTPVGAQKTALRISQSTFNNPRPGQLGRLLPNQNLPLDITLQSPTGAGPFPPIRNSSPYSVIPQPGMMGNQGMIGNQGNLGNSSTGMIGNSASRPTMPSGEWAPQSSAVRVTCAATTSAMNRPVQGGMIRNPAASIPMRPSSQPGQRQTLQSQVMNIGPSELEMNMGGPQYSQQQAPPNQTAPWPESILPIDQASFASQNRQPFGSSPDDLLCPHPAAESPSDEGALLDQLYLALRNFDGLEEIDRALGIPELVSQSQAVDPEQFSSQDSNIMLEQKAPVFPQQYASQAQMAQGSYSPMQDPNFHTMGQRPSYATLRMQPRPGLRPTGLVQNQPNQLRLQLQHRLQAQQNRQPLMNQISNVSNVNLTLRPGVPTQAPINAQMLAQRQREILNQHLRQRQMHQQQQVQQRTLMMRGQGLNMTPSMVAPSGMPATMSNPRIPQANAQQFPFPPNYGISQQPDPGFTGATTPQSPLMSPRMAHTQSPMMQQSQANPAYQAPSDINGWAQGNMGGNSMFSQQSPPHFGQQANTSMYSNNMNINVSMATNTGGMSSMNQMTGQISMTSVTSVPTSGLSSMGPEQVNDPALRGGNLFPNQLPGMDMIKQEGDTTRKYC

[4] = target: Glucose-6-phosphate 1-dehydrogenase (Homo sapiens, UniProt P11413); experiment: human G6PD enzyme inhibitors, dose response, selectivity assay for P. falciparum G6PD inhibitor project, biochemical, fluorescence (AID 504792); format: functional
[5] = target: Voltage-gated inwardly rectifying potassium channel KCNH2 (Homo sapiens, UniProt Q12809); conditions: Potency;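 also: confirmatory quantitative high-throughput screen measuring inhibition of hERG channel activity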
Sequence of Voltage-gated inwardly rectifying potassium channel KCNH2 (Q12809 whole entry): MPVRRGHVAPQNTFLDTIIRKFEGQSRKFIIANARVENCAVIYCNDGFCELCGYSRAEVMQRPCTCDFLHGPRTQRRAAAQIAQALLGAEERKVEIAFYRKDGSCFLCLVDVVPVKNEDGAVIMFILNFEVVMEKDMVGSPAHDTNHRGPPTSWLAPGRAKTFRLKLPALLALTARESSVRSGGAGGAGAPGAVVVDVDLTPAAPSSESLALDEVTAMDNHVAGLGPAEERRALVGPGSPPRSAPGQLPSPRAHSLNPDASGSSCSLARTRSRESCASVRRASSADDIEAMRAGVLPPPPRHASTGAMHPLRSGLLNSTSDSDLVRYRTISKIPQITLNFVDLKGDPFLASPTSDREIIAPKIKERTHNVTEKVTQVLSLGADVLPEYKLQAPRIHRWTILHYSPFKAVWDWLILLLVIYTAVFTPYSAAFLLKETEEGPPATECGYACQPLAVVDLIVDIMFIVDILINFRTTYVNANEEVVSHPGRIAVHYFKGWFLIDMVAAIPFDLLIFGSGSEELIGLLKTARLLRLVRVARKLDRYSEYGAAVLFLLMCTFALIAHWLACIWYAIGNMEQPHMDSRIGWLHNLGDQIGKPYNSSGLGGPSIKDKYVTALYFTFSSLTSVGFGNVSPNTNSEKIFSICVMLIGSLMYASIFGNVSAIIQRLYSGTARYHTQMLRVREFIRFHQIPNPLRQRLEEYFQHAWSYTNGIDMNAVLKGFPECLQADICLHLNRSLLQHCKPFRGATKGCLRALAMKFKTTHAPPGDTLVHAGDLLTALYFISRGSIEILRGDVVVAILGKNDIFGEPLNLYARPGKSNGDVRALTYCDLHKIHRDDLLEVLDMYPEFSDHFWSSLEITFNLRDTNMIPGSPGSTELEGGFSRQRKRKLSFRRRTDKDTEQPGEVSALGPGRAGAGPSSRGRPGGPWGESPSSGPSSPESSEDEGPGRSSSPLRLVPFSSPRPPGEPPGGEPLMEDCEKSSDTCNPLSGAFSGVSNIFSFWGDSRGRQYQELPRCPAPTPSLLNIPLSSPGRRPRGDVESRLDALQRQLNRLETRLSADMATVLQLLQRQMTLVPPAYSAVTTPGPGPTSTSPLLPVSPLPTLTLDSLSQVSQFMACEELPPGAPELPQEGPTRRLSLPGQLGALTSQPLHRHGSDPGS

[6] = target: T1, DNA repair protein RAD52 homolog (Homo sapiens, UniProt P43351); format: functional, biochemical
T1 sequence (P43351 whole entry): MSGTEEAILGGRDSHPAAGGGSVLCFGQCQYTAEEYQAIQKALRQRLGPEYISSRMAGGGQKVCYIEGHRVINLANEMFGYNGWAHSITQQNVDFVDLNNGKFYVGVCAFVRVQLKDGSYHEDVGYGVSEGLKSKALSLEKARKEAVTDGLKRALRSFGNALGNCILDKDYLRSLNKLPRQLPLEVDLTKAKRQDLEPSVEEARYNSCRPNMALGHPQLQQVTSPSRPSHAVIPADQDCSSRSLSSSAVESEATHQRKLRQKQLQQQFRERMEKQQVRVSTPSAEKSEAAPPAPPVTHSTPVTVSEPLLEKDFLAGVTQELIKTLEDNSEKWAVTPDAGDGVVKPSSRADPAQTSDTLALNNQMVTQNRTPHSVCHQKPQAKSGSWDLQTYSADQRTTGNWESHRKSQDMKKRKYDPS

[7] = tested on: HEK293; experiment: inhibitors of LMP1-driven NF-kB reporter, dose response, cell-based, HEK293, luciferase, cherry-pick (AID 588343); format: functional; conditions: Homo sapiens
[8] = LGR2 antagonists, dose response, cell-based, HEK293, CRE-luciferase reporter, cherry pick, set 2 (AID 743343); format: functional;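 also: transfected cells were stimulated with diluted bursicon conditioned medium after compound addition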
[9] = MC4R antagonists, dose response, counter-screen for LGR2 antagonist project, cell-based, plate reader, cherry pick (AID 743444); format: functional;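 also: transfected HEK 293 cells stimulated with alpha-MSH peptide; potency of inhibitors of the alpha-MSH evoked signal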
[10] = tested on: HEK293; experiment: NOD1 signaling inhibitors, primary screen, cell-based, luminescence, uHTS (AID 1578); format: functional; conditions: Homo sapiens
[11] = tested on: Streptococcus sp. 'group A'; experiment: growth inhibition of control SK(-) GAS strain, dose response, counter-screen for streptokinase expression inhibitor project, luminescence, kanamycin, BacTiterGlo, confirmation (AID 1900); format: functional, organism-based
[12] = tested on: HEK293; experiment: cells; format: functional, cell-based; conditions: Homo sapiens
[13] = tested on: HEK293; experiment: cells; format: functional, cell-based; conditions: Homo sapiens; remark: listed apart in the source
[14] = tested on: HEK293; experiment: NOD2 signaling inhibitors in MDP-stimulated cells, cell-based, uHTS, luminescence (AID 2001); format: functional; conditions: Homo sapiens
[15] = tested on: Streptococcus; experiment: Group A Streptococcus viability loss, dose response, counter-screen for streptokinase expression inhibitor project, luminescence, BacTiterGlo (AID 1915); format: functional, organism-based;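 also: potency for reduction of bacterial viability or growth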
[16] = tested on: HEK293; experiment: cells; conditions: Homo sapiens

Structure (SMILES): CCCn1cc(S(=O)(=O)CC(=O)Nc2ccc(OC)cc2OC)c2ccccc21
IC50 [4]: 59.9 µM (inactive)

Structure (SMILES): NCC(O)C1CCCCCCC1 (centres undefined)
AC50 [5]: 15.8 µM (inconclusive)

Structure (SMILES): [O-]/[N+](=C\c1ccccc1)c1ccc(Br)cc1
IC50 [4]: 22.1 µM (inactive)

Structure (SMILES): O=C(Nc1cccc(C(=O)O)c1)Nc1ccccc1Cl
AC50 [7]: 4.97 µM (active)
AC50 [8]: 2.75 µM (active)
AC50 [9]: 4.29 µM (active)

Structure (SMILES): N#Cc1c(O)nc(SCc2cccc(C(F)(F)F)c2)nc1-c1ccccc1
EC50 [10]: 6.55 µM (active)
EC50 [11]: 2.63 µM (active)
IC50 [12]: > 20 µM (inactive)
IC50 [13]: 19 µM (active)
IC50 [14]: 13.2 µM (inactive)
EC50 [15]: 10.3 µM (active)
IC50 [16]: > 20 µM (inactive)

The next lines start with results.

EC50 [1]: > 79.4 µM (inactive)
EC50 [2]: > 79.4 µM (not active)
EC50 [3]: > 79.4 µM (not active)
Structure (SMILES): COCCNC(=O)CSc1cc(=O)n(C)c2cc(Cl)ccc12

EC50 [1]: > 79.4 µM (inactive)
EC50 [2]: > 79.4 µM (not active)
EC50 [3]: > 79.4 µM (not active)
Structure (SMILES): O=C1c2ccccc2-c2cccc(NS(=O)(=O)c3ccc(C(F)(F)F)cc3)c21

EC50 [1]: 52.9 µM (inactive)
EC50 [2]: > 79.4 µM (not active)
EC50 [3]: 35.4 µM (not active)
Structure (SMILES): CCn1c(=O)cc(SCC(=O)Nc2ccc3c(c2)OCO3)c2ccccc21

AC50 [6]: 18 µM (active)
Structure (SMILES): CN(C)c1nc(N)c(C(=O)NC(=N)N)nc1Cl [5-(N,N-DIMETHYL)AMILORIDE HYDROCHLORIDE]
AC50 [5]: 17.8 µM (inconclusive)
